# Test results as given in article PMC4100786 (Biochemistry, 2014).
# Molecular target: ISWI (Xenopus laevis, UniProt Q9DF71)
# Format: binding
# ISWI, sequence (Q9DF71 1-1046): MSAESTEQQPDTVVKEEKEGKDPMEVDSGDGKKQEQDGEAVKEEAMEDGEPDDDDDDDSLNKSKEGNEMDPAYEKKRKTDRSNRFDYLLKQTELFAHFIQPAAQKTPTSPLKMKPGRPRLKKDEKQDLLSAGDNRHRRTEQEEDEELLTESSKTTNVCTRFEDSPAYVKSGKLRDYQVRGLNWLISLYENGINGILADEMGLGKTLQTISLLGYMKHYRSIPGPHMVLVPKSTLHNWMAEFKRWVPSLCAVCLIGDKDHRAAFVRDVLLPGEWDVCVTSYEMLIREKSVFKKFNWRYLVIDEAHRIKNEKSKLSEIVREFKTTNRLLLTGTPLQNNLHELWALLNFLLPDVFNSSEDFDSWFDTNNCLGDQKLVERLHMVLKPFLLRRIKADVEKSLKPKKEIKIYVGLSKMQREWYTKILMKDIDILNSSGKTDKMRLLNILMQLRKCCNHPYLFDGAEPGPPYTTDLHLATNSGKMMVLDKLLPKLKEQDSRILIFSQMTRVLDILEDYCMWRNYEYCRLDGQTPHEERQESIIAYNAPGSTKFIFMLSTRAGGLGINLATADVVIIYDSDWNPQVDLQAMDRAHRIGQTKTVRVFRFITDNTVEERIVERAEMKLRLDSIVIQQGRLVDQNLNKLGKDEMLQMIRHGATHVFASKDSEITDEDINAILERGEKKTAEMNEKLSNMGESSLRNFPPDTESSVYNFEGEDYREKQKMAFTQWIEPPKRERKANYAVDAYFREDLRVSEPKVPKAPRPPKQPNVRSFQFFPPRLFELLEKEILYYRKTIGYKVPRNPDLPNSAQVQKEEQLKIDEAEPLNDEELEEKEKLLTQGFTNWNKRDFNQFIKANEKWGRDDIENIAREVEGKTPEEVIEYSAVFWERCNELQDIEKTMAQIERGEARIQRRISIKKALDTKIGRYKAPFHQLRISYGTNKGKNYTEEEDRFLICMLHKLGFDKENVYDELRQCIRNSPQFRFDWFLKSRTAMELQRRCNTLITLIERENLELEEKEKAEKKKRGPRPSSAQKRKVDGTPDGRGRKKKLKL
smiles,measurement,value
Nc1ncnc2c1ncn2[C@@H]1O[C@H](CO[P@](=O)(O)O[P@](=O)(O)O[P@@](=O)(O)S)[C@@H](O)[C@H]1O [ATP-γ-S],Kd,140 ± 30 µM
